The source of these data is US10858342B2, “Bicyclic imidazole derivatives useful for the treatment of renal diseases, cardiovascular diseases and fibrotic diseases” (Boehringer Ingelheim International GmbH, priority 2016, dated 2020).

Broadly, the IC50 is the midpoint of a concentration-inhibition curve.

Where two headings read alike, the source gives them in different places.

Assay type in all cases: biochemical, cynomolgus monkey
In experiment [1] the test system is aldosterone synthase (CYP11B2). Briefly: Inhibition of aldosterone synthase (cynomolgus adrenal mitochondria, aldosterone by mass spectrometry). Particulars: selectivity for aldosterone synthase inhibition over cortisol synthase (CYP11B1) inhibition, fold. The procedure, abridged: (§1)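 Cynomolgus adrenal mitochondria (50 units CYP11B2 activity) incubated with 2 μM corticosterone in 100 mM potassium phosphate pH 7.4, 1% DMSO; started with 1 mM NADPH, 90 min at 37 °C. Aldosterone quantified by mass spectrometry; no-NADPH blank as 0%, no-compound as 100% activity, across compound concentrations.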

Experiment [2] concerns the target aldosterone synthase (CYP11B2) (Macaca fascicularis, UniProt A0A2K5UPL9). The experiment is described as above. Particulars: 2 μM corticosterone substrate, 50 units CYP11B2, 90 min, 37° C.; read-out: Aldosterone Inhibition IC50. The procedure, abridged:
as §1

Experiment [3] concerns the target cortisol synthase (CYP11B1) (Macaca fascicularis, UniProt A0A2K5ULY1). The experiment in a line: Inhibition of cortisol synthesis (cynomolgus adrenal mitochondria, cortisol by mass spectrometry). In short, it runs like this:
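Cynomolgus adrenal mitochondria (150 units CYP11B1 activity) incubated with 11-deoxycortisol in 100 mM potassium phosphate pH 7.4, 1% DMSO; reaction started with 1 mM NADPH, 90 min at 37° C, stopped with MeCN. Cortisol quantified by mass spectrometry; IC50 from 4-parameter logistic fit versus no-compound (100%) and no-NADPH (0%) controls.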

Where [4] appears, read: read-out: Cortisol Inhibition IC50; 11-deoxycortisol substrate, 150 units CYP11B1.
Where [5] appears, read: 11-deoxycortisol substrate, 150 units CYP11B1; read-out: Cortisol Inhibition IC50.

Chain of aldosterone synthase (CYP11B2) (Macaca fascicularis, UniProt A0A2K5UPL9) (A0A2K5UPL9 1-503): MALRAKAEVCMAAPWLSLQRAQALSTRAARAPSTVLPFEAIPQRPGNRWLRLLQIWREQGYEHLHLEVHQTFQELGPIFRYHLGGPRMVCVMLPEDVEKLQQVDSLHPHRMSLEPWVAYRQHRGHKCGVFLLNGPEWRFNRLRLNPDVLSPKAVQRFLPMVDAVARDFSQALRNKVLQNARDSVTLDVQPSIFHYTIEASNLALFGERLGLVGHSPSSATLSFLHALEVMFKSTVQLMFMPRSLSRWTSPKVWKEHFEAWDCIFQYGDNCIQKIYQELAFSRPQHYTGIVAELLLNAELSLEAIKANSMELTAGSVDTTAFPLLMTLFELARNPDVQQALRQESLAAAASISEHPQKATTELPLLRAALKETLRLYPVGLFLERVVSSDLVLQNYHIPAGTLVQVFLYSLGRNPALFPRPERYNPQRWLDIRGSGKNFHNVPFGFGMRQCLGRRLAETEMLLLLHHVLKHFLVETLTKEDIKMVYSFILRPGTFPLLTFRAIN

As for `N#Cc1ccc(-n2cnc3c2C(=O)CCC3)cc1Cl` [C-AEA, 2-Chloro-4-(7-oxo-4,5,6,7-tetrahydro-benzoimidazol-1-yl)-benzonitrile], the Selectivity in experiment [1] is given as 130. Besides, the values for the IC50 in experiment [2] and in experiment [3] (setting [4]) were 0.0087 µM and 1.1 µM, respectively.
In experiment [1], `CC1(C)CC(=O)c2c(ncn2-c2ccc(F)cc2)C1` [C-ABP, 3-(4-Fluoro-phenyl)-6,6-dimethyl-3,5,6,7-tetrahydro-benzoimidazol-4-one] yielded a Selectivity of 52. Also, the IC50 in experiment [2] stood at 0.021 µM; in experiment [3] (setting [5]), 1.1 µM.
`CC1(C)CC(=O)c2c(ncn2C2CCc3ncncc3C2)C1` (stereo not drawn) [C-ACV, 6,6-Dimethyl-3-(5,6,7,8-tetrahydro-quinazolin-6-yl)-3,5,6,7-tetrahydro-benzoimidazol-4-one] showed a Selectivity in experiment [1] of 35. Further, the IC50 was 0.86 µM in experiment [2] and more than 30 µM in experiment [3] (setting [5]).
The corresponding values for `CN1C(=O)CCc2cc(-n3cnc4c3C(=O)CC3(CCOCC3)C4)ccc21` [C-AAP, 3-(1-Methyl-2-oxo-3,4-dihydroquinolin-6-yl)spiro[5,7-dihydrobenzoimidazole-6,4′-tetrahydropyran]-4-one] are 65, 0.46 µM and more than 30 µM.
In turn, `CC1(C)CC(=O)c2c(ncn2-c2ccc(F)c(F)c2)C1` [C-ABC, 3-(3,4-Difluoro-phenyl)-6,6-dimethyl-3,5,6,7-tetrahydro-benzimidazol-4-one] had a Selectivity in experiment [1] of 63. The concentration for half-maximal inhibition (IC50) was 0.01 µM in experiment [2] and 0.65 µM in experiment [3] (setting [5]).
The corresponding values for `CN1C(=O)CCc2cc(-n3cnc4c3C(=O)CC3(CCC3)C4)ccc21` [C-AAV, 3-(1-Methyl-2-oxo-3,4-dihydroquinolin-6-yl)spiro[5,7-dihydrobenzimidazole-6,1′-cyclobutane]-4-one] are 300, 0.047 µM and 14 µM.
Turning to `CC1(C)CC(=O)c2c(ncn2C2CC(c3ccccc3)C2)C1` (stereo not drawn) [C-ACU, 6,6-Dimethyl-3-(3-phenyl-cyclobutyl)-3,5,6,7-tetrahydro-benzoimidazol-4-one], the Selectivity in experiment [1] was determined as 85. For the same compound, the IC50 in experiment [2] is 0.11 µM; in experiment [3] (setting [5]) it was 9.4 µM.
In the case of `CC1CCc2ncn(-c3ccc(C#N)cc3)c2C1=O` (stereo not drawn) [C-ADY, 4-(6-Methyl-7-oxo-4,5,6,7-tetrahydro-benzoimidazol-1-yl)-benzonitrile], in experiment [1], the Selectivity was determined as 152. Besides, the results for the IC50 in experiment [2] and in experiment [3] (setting [5]) were 0.024 µM and 3.64 µM, respectively.
Compound `N#Cc1ccc(-n2cnc3c2C(=O)CC2(CCC2)C3)cc1Cl` [C-ACG, 3-(4-Cyano, 3-chlorophenyl)-6,6-spirocyclobutyl-3,5,6,7-benzimidazolo-4-one] yielded a Selectivity in experiment [1] of 7.5. Further, the IC50 in experiment [2] was determined as 0.012 µM; in experiment [3] (setting [4]), 0.093 µM.
On to `CC1(C)CC(=O)c2c(ncn2C2CC3(COC3)C2)C1` [C-ACT, 6,6-Dimethyl-3-(2-oxa-spiro[3.3]hept-6-yl)-3,5,6,7-tetrahydro-benzoimidazol-4-one], for which the Selectivity in experiment [1] was 38. Moreover, the IC50 in experiment [2] was 0.78 µM; in experiment [3] (setting [5]), more than 30 µM.
`CC1(C)CCc2ncn(-c3ccc(C#N)cc3)c2C1=O` [C-ADX, 4-(6,6-Dimethyl-7-oxo-4,5,6,7-tetrahydro-benzoimidazol-1-yl)-benzonitrile]: in experiment [1], the Selectivity is reported as 153. In addition, the IC50 amounted to 0.014 µM in experiment [2] and 2.14 µM in experiment [3] (setting [5]).
`CC1(C)CC(=O)c2c(ncn2CC2CCOCC2)C1` [C-ADI, 6,6-Dimethyl-3-(tetrahydro-pyran-4-ylmethyl)-3,5,6,7-tetrahydro-benzoimidazol-4-one] registered a Selectivity in experiment [1] of 41. The IC50 in experiment [2] is 0.47 µM; in experiment [3] (setting [5]) it was 19 µM.
In experiment [1], `C[C@H]1Cc2cc(-n3cnc4c3C(=O)CCC4)ccc2O1` (stereo in doubt) [C-AAZ-B, 3-(2-Methyl-2,3-dihydro-benzofuran-5-yl)-3,5,6,7-tetrahydro-benzoimidazol-4-one] gave a Selectivity of 430. For the same compound, the IC50 in experiment [2] was 0.07 µM; in experiment [3] (setting [5]) it was more than 30 µM.
In the same order, the values of “3-(4-Chloroophenyl)-6,6-spirocyclopropyl-3,5,6,7-tetrahydro-benzimidazolo-4-one [C-ACF]” are 57, 0.01 µM and 0.59 µM.
